Experimental data reported in paper PMC8352984, “Estrogen mediates sex differences in preoptic neuropeptide and pituitary hormone production in medaka” (Communications Biology, 2021).

Experiments:
[1] = test system: follicle-stimulating hormone β subunit (fshb) gene expression; test: Ex vivo pituitary organ culture, real-time PCR of fshb; assay type: cell-based, medaka (Oryzias latipes); details: for fshb expression (in words): female pituitaries, 10^-5 M, 24 h, 25 °C, vs vehicle;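 on fshb expression (Fig. 8, fshb): relative expression with female control samples set to 1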
Excerpt: (§1) Fig. 8 Pacap and Vip have pleiotropic effects on the expression of anterior pituitary hormones. The effects of Pacap and Vip on gene expression levels of follicle-stimulating hormone β subunit (fshb), luteinizing hormone β subunit (lhb), thyroid-stimulating hormone β subunit (tshb), growth hormone (gh), somatolactin (sl), prolactin (prl), and pro-opiomelanocortin (pomc) were investigated by using male and female pituitaries cultured ex vivo (n = 6 per group, except male pituitary supplemented with Vip, where n = 5). Data were expressed as means with error bars representing standard error of the mean. Statistical differences were assessed by Dunnett’s post-hoc test. *p < 0.05; **p < 0.01; ***p < 0.001.
(§2) The pituitaries from five male or female fish were pooled for each sample and cultured ex vivo in Leibovitz’s L-15 medium supplemented with 5% charcoal-stripped fetal bovine serum as described elsewhere. The medium was further supplemented with 10^−5 M medaka Pacap or Vip, or vehicle alone. After 24 h of culture at 25 °C, the pituitaries were processed for total RNA extraction and cDNA synthesis by using the RNeasy Plus Micro Kit (Qiagen) and SuperScript VILO cDNA Synthesis Kit (Thermo Fisher Scientific), respectively. Real-time PCR was performed on the LightCycler 480 System II using LightCycler 480 SYBR Green I Master (Roche Diagnostics). The cycle conditions were: 95 °C for 5 min followed by 45 cycles of 95 °C for 10 sec, 60 °C for 10 sec and 72 °C for 10 sec. Melting curve analysis was performed as described above. Data were normalized to the geometric mean of three reference genes, actb, gapdh (encoding glyceraldehyde-3-phosphate dehydrogenase; National BioResource Project (NBRP) Medaka clone ID olbrno9_f15) and rpl13 (encoding ribosomal protein L13; NBRP Medaka clone ID olovano51_b24), according to Vandesompele et al.[63]. The primers used for real-time PCR are listed in Supplementary Table 3.

[2] = test system: Fshb expression, gonadotrophs; details: dispersed rat pituitary cells; cited from earlier work
Excerpt: (§3) Contrary to pomc, fshb expression was female-biased and repressed by Pacap and Vip in a female-specific manner. […] Possibly, Pacap may have a similar mechanism of action in medaka. In medaka, however, the inhibitory effect on fshb is assumed to be primarily driven ...

[3] = test system: luteinizing hormone release via Adcyap1r1; set-up: method as in PMID 10949084; details: goldfish and rat; cited from earlier work
Excerpt: as §3

[4] = test system: Sl-producing cells, via Adcyap1r1; set-up: method as in PMID 18523122, PMID 19540424, PMID 23422837; details: grass carp and goldfish; cited from earlier work
[5] = test system: thyroid-stimulating hormone β subunit (tshb) gene expression; test: Ex vivo pituitary organ culture, real-time PCR of tshb; assay type: cell-based, medaka (Oryzias latipes); details: for tshb expression (in words): 10^-5 M, 24 h, 25 °C, vs vehicle
Excerpt: as §1, §2

[6] = test system: somatolactin (sl) gene expression; test: Ex vivo pituitary organ culture, real-time PCR of sl; assay type: cell-based, medaka (Oryzias latipes); details: for sl expression (in words): 10^-5 M, 24 h, 25 °C, vs vehicle
Excerpt: as §1, §2

[7] = test system: luteinizing hormone β subunit (lhb) gene expression; test: Ex vivo pituitary organ culture, real-time PCR of lhb; assay type: cell-based, medaka (Oryzias latipes); details: for lhb expression (in words): 10^-5 M, 24 h, 25 °C, vs vehicle;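 on lhb expression (Fig. 8, lhb): relative expression with female control samples set to 1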
Excerpt: as §1, §2

Pituitary adenylate cyclase-activating polypeptide [Pacap]
fshb expression (in words) [1]: significantly reduced
fshb expression (Fig. 8, fshb) ([1]; female, replicate 1): 0.383
fshb expression (Fig. 8, fshb) ([1]; female, replicate 2): 0.806
fshb expression (Fig. 8, fshb) ([1]; female, replicate 3): 0.807
fshb expression (Fig. 8, fshb) ([1]; female, replicate 4): 0.427
fshb expression (Fig. 8, fshb) ([1]; female, replicate 5): 0.650
fshb expression (Fig. 8, fshb) ([1]; female, replicate 6): 0.545
fshb expression (Fig. 8, fshb) ([1]; male, replicate 1): 0.173
fshb expression (Fig. 8, fshb) ([1]; male, replicate 2): 0.236
fshb expression (Fig. 8, fshb) ([1]; male, replicate 3): 0.293
fshb expression (Fig. 8, fshb) ([1]; male, replicate 4): 0.230
fshb expression (Fig. 8, fshb) ([1]; male, replicate 5): 0.290
fshb expression (Fig. 8, fshb) ([1]; male, replicate 6): 0.452
fshb expression (in words) [2]: acts directly on gonadotrophs to inhibit Fshb expression
release of luteinizing hormone (in words) [3]: directly stimulates the release of luteinizing hormone via Adcyap1r1
synthesis and release of Sl (in words) [4]: stimulate the synthesis and release of Sl via Adcyap1r1
tshb expression (in words) ([5]; female pituitaries): no significant effects
tshb expression (Fig. 8, tshb) ([5]; female, replicate 1): 0.514
tshb expression (Fig. 8, tshb) ([5]; female, replicate 2): 0.485
tshb expression (Fig. 8, tshb) ([5]; female, replicate 3): 0.534
tshb expression (Fig. 8, tshb) ([5]; female, replicate 4): 0.502
tshb expression (Fig. 8, tshb) ([5]; female, replicate 5): 0.686
tshb expression (Fig. 8, tshb) ([5]; female, replicate 6): 0.387
tshb expression (in words) ([5]; male pituitaries): no significant effects
tshb expression (Fig. 8, tshb) ([5]; male, replicate 1): 0.207
tshb expression (Fig. 8, tshb) ([5]; male, replicate 2): 0.364
tshb expression (Fig. 8, tshb) ([5]; male, replicate 3): 1.165
tshb expression (Fig. 8, tshb) ([5]; male, replicate 4): 0.157
tshb expression (Fig. 8, tshb) ([5]; male, replicate 5): 2.250
tshb expression (Fig. 8, tshb) ([5]; male, replicate 6): 0.895
sl expression (in words) ([6]; female pituitaries): substantially increased
sl expression (Fig. 8, sl) ([6]; female, replicate 1): 5.138
sl expression (Fig. 8, sl) ([6]; female, replicate 2): 3.103
sl expression (Fig. 8, sl) ([6]; female, replicate 3): 4.426
sl expression (Fig. 8, sl) ([6]; female, replicate 4): 3.042
sl expression (Fig. 8, sl) ([6]; female, replicate 5): 2.318
sl expression (Fig. 8, sl) ([6]; female, replicate 6): 4.074
sl expression (in words) ([6]; male pituitaries): substantially increased
sl expression (Fig. 8, sl) ([6]; male, replicate 1): 1.710
sl expression (Fig. 8, sl) ([6]; male, replicate 2): 1.255
sl expression (Fig. 8, sl) ([6]; male, replicate 3): 1.415
sl expression (Fig. 8, sl) ([6]; male, replicate 4): 1.513
sl expression (Fig. 8, sl) ([6]; male, replicate 5): 0.886
sl expression (Fig. 8, sl) ([6]; male, replicate 6): 2.724
lhb expression (in words) ([7]; female pituitaries): increased
lhb expression (Fig. 8, lhb) ([7]; female, replicate 1): 2.134
lhb expression (Fig. 8, lhb) ([7]; female, replicate 2): 1.510
lhb expression (Fig. 8, lhb) ([7]; female, replicate 3): 1.040
lhb expression (Fig. 8, lhb) ([7]; female, replicate 4): 2.513
lhb expression (Fig. 8, lhb) ([7]; female, replicate 5): 1.735
lhb expression (Fig. 8, lhb) ([7]; female, replicate 6): 1.319
lhb expression (in words) ([7]; male pituitaries): increased
lhb expression (Fig. 8, lhb) ([7]; male, replicate 1): 3.240
lhb expression (Fig. 8, lhb) ([7]; male, replicate 2): 1.453
lhb expression (Fig. 8, lhb) ([7]; male, replicate 3): 3.021
lhb expression (Fig. 8, lhb) ([7]; male, replicate 4): 2.751
lhb expression (Fig. 8, lhb) ([7]; male, replicate 5): 1.229
lhb expression (Fig. 8, lhb) ([7]; male, replicate 6): 1.907

vasoactive intestinal peptide [Vip]
fshb expression (in words) [1]: significantly reduced
fshb expression (Fig. 8, fshb) ([1]; female, replicate 1): 0.539
fshb expression (Fig. 8, fshb) ([1]; female, replicate 2): 0.835
fshb expression (Fig. 8, fshb) ([1]; female, replicate 3): 0.607
fshb expression (Fig. 8, fshb) ([1]; female, replicate 4): 0.498
fshb expression (Fig. 8, fshb) ([1]; female, replicate 5): 0.542
fshb expression (Fig. 8, fshb) ([1]; female, replicate 6): 0.944
fshb expression (Fig. 8, fshb) ([1]; male, replicate 1): 0.537
fshb expression (Fig. 8, fshb) ([1]; male, replicate 2): 0.688
fshb expression (Fig. 8, fshb) ([1]; male, replicate 3): 0.453
fshb expression (Fig. 8, fshb) ([1]; male, replicate 5): 0.338
fshb expression (Fig. 8, fshb) ([1]; male, replicate 6): 0.319
tshb expression (in words) ([5]; female pituitaries): no significant effects
tshb expression (Fig. 8, tshb) ([5]; female, replicate 1): 1.106
tshb expression (Fig. 8, tshb) ([5]; female, replicate 2): 0.773
tshb expression (Fig. 8, tshb) ([5]; female, replicate 3): 0.549
tshb expression (Fig. 8, tshb) ([5]; female, replicate 4): 1.002
tshb expression (Fig. 8, tshb) ([5]; female, replicate 5): 0.461
tshb expression (Fig. 8, tshb) ([5]; female, replicate 6): 0.560
tshb expression (in words) ([5]; male pituitaries): no significant effects
tshb expression (Fig. 8, tshb) ([5]; male, replicate 1): 0.809
tshb expression (Fig. 8, tshb) ([5]; male, replicate 2): 1.442
tshb expression (Fig. 8, tshb) ([5]; male, replicate 3): 0.793
tshb expression (Fig. 8, tshb) ([5]; male, replicate 5): 0.484
tshb expression (Fig. 8, tshb) ([5]; male, replicate 6): 0.743
sl expression (in words) ([6]; female pituitaries): substantially increased
sl expression (Fig. 8, sl) ([6]; female, replicate 1): 2.764
sl expression (Fig. 8, sl) ([6]; female, replicate 2): 2.848
sl expression (Fig. 8, sl) ([6]; female, replicate 3): 3.893
sl expression (Fig. 8, sl) ([6]; female, replicate 4): 3.276
sl expression (Fig. 8, sl) ([6]; female, replicate 5): 2.230
sl expression (Fig. 8, sl) ([6]; female, replicate 6): 4.010
sl expression (in words) ([6]; male pituitaries): substantially increased
sl expression (Fig. 8, sl) ([6]; male, replicate 1): 2.507
sl expression (Fig. 8, sl) ([6]; male, replicate 2): 2.455
sl expression (Fig. 8, sl) ([6]; male, replicate 3): 2.960
sl expression (Fig. 8, sl) ([6]; male, replicate 5): 2.682
sl expression (Fig. 8, sl) ([6]; male, replicate 6): 1.395
lhb expression (in words) ([7]; female pituitaries): no significant effect
lhb expression (Fig. 8, lhb) ([7]; female, replicate 1): 0.807
lhb expression (Fig. 8, lhb) ([7]; female, replicate 2): 0.719
lhb expression (Fig. 8, lhb) ([7]; female, replicate 3): 1.380
lhb expression (Fig. 8, lhb) ([7]; female, replicate 4): 0.757
lhb expression (Fig. 8, lhb) ([7]; female, replicate 5): 0.750
lhb expression (Fig. 8, lhb) ([7]; female, replicate 6): 0.836
lhb expression (in words) ([7]; male pituitaries): no significant effect
lhb expression (Fig. 8, lhb) ([7]; male, replicate 1): 1.203
lhb expression (Fig. 8, lhb) ([7]; male, replicate 2): 1.004
lhb expression (Fig. 8, lhb) ([7]; male, replicate 3): 1.517
lhb expression (Fig. 8, lhb) ([7]; male, replicate 5): 0.870
lhb expression (Fig. 8, lhb) ([7]; male, replicate 6): 0.512
